One assay relates to TGF Béta. The settings on record: publication of Lecanda and Gold, March 2009; cited from earlier work.
For the next assay, the system named is cells of benign tumors. The note with it: background statement; cited from earlier work.
In assay [1] the test system is LIV21. The settings on record: TPA-treated MCF-7 lines; cited from earlier work.
The target in another assay is T1, PKCε (Homo sapiens, UniProt Q02156).
T1 construct: endogenous in cells; host or cells: MCF-7
T1 sequence (Q02156 1-737): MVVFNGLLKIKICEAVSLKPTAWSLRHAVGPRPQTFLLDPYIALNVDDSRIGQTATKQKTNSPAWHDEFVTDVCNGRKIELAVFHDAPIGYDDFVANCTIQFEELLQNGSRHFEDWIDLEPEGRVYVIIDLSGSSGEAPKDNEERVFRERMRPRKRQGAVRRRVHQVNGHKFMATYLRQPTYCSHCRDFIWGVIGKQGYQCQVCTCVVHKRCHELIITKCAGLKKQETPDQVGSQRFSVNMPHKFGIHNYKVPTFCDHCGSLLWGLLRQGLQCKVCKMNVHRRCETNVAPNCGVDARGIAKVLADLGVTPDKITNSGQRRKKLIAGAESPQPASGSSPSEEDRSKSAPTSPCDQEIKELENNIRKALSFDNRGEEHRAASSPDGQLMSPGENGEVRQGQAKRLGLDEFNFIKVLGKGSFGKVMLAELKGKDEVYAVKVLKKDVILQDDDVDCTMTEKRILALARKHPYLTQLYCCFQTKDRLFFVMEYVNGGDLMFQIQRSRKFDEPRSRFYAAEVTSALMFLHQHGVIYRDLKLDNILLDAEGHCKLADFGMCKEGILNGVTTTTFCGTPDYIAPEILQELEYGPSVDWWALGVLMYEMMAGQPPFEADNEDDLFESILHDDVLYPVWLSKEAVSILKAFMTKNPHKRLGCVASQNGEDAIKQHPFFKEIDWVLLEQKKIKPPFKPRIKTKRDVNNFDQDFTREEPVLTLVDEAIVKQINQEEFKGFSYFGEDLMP
The assay can be described thus: Western blotting of PKCε expression as a function of the duration of TPA treatment. The assay is classed as cell-based. The note with it: MCF-7 cells. From the text: (§1) Western blotting study: Given that the protein sequence of LIV21 has putative PKCε phosphorylation sites, including two specific for PKCε, the inventor tested the variation in the expression of this PKC as a function of the duration of TPA treatment. […] The expression of PKCzeta (PKCζ) is used as an internal control since it is not sensitive to TPA.
(Immunoblotting shows a protein as a band on a membrane.)

The next assay relates to normal breast cells. The note with it: background statement; cited from earlier work.
Assay [2] relates to LIV21. As to the kind of experiment: Fluorescence localization of LIV21 in nuclei during TPA treatment. The assay is classed as cell-based, human. The settings on record: TPA 25 nM, after 12 h. As for the experimental part:
(§2) During this TPA treatment (25 nM), when E2F4, p130 and LIV21 were studied (green fluorescence) in the nuclei labelled (DNA) with propidium iodide (red fluorescence), the following were observed: […]

The next assay relates to estrogen receptors (ERs). The settings on record: MCF-7 cells, background statement; cited from earlier work.
The test system of a further assay is PKCzeta (PKCζ). The assay can be described thus: Western blotting of PKCzeta expression (internal control) under TPA treatment. In kind it is cell-based, human.
Description: as §1

The test system of the next assay is E2F4. The assay can be described thus: Fluorescence localization of E2F4 in nuclei during TPA treatment. The note with it: TPA 25 nM. The assay is classed as cell-based, human. On the procedure: as §2
Another assay has as its system MCF-7 cells. The settings on record: background statement; cited from earlier work.
For a further assay, the system named is MCF-7 line. The settings on record: cited from earlier work.
Another assay concerns protein kinases C (PKCs). The note with it: MCF-7 cells, background statement; cited from earlier work.
The test system of another assay is p130. The assay can be described thus: Fluorescence localization of p130 in nuclei during TPA treatment. The settings on record: TPA 25 nM, after 12 h. In kind it is cell-based, human. On the procedure: as §2
Assay [3] has as its system LIV21. The assay can be described thus: Cell fractionation, LIV21 expression profile in cytoplasm and nuclear fraction. The assay is classed as cell-based, human. The note with it: cultures treated with peptide at 2 μM compared with TPA-treated cultures. From the text:
The study of the specific role of the PKC epsilon on the nuclear translocation of Liv 21F can use a peptide which inhibits function PKC epsilon and the translocation like previously described but also according to the protocol of reference of Si RNA of PKC epsilon. The profile of expression observed corresponds to a doublet of tapes in the cytoplasm with approximately 51 KD (and with a tape of 64 kD according to the siRNA used) whereas it corresponds only to one simple tape with 50 kD in the nuclear fraction.

The next assay has as its target T2, PKC (Homo sapiens, UniProt Q02156).
T2 construct: endogenous in cells; host or cells: MCF-7
T2 sequence (Q02156 1-737): T1 sequence (Q02156 1-737)
The note with it: PKC-specific inhibitory peptide; cited from earlier work.

Assay [4] concerns LIV21. As to the kind of experiment: Immunocytochemistry of the nuclear translocation of LIV21. The assay is classed as cell-based, human. The note with it: peptide 2 μM, 12 h, compared with TPA 25 nM. From the text: To determine the specific action of PKCε on the translocation of LIV21, the crops were discussed with a peptide, selective antagonist of the function and translocation of this PKC (EAVSLKPT (SEQ ID No 6), and the results were compared with those obtained by processing with TP A. This peptide is recognized by the enzyme and links themselves as a substrate amended to the level of its catalytic site. Not phosphorylable, he acts as a specific inhibitor of the activity of PKCε.
The effect of the selective inhibition of the activity of PKCε on the nuclear translocation of LIV21 was studied by immunocytochemistry.

Where two headings read alike, the source gives them in different places.

Take `Fc1ccc(Cl)cc1-c1nc(Nc2ccncc2)c2nccnc2n1` [SD208]: the “TGF Béta events (increase and nuclear accumulation of p27 via smad 2 and smad 3)” value in the assay with TGF Béta was “All these events are locked”.
In the case of `CCCCCCCCCCCCCC(=O)O[C@@H]1[C@@H](C)[C@@]2(O)[C@@H](C=C(CO)C[C@]3(O)C(=O)C(C)=C[C@@H]23)[C@H]2C(C)(C)[C@]12OC(C)=O` [TPA, 12-0-tetradecanoyl phorbol-13-10 sumoate], the “proliferation of the cells of benign tumors” value with cells of benign tumors is given as “does not modify the proliferation”. In addition, the LIV21 localization entry in the assay on LIV21 [1] was “translocated into the nucleus”; in the assay with LIV21 [2] it was “intranuclear green fluorescence signals”. At PKCε, the PKCε expression result is given as “decreases from 30 min”. For the same molecule, in the assay on normal breast cells, the “growth of normal breast cells” value is reported as “activates the growth”. Besides, in the assay with estrogen receptors (ERs), the “expression and function of estrogen receptors (ERs)” value is “greatly and rapidly inhibits”. Besides, in the assay with PKCzeta (PKCζ), the “expression of PKCzeta (PKCζ)” value is given as “not sensitive”. Also, the values for the E2F4 localization entry in the assay with E2F4 (after 12 h), in the assay with E2F4 (after 48 h) and with E2F4 (at 72 h) were “intranuclear green fluorescence signals”, “comparable localization” and “disappears from the nucleus”, respectively. Further, the “migratory capacity of MCF-7 cells in vitro” value with MCF-7 cells was “increases the migratory capacity”. For the same molecule, the cancerous proliferation entry in the assay on MCF-7 line (TPA-treated MCF-7 lines) is reported as “inhibition of cancerous proliferation”. The cell differentiation entry with MCF-7 line (TPA-treated MCF-7 lines) was “cell differentiation”. Further, the “proliferation of the cells of human mammary tumor lines such as the MCF-7 line” value in the assay with MCF-7 line (background statement) was “drastically inhibits the proliferation”. Also, in the assay with protein kinases C (PKCs), the “translocation of protein kinases C (PKCs) from the cytosol to the membranes” value was “induces the time- and dose-dependent translocation”. Moreover, the p130 localization entry in the assay on p130 is reported as “intranuclear green fluorescence signals”. Besides, the LIV21 expression profile entry with LIV21 [3] was “doublet in the cytoplasm and of a single band in the nuclear fraction”.
For the molecule EAVSLKPT [PKC inhibiting peptide], on PKC, the “PKC activity versus expression” value was “it was the activity and not the expression of PKC which was inhibited”. Moreover, in the assay on LIV21 [4], the “nuclear translocation of LIV21” value is listed as “effect identical to that of TPA”. Besides, the LIV21 expression profile entry with LIV21 [3] is “doublet in the cytoplasm and of a single band in the nuclear fraction”.
